According to patent US10544150B2, “NK-3 receptor selective antagonist compounds, pharmaceutical composition and methods for use in NK-3 receptors mediated disorders” (Ogeda SA, priority 2010, dated 2020):

Biological target: human NK-3 receptor (Homo sapiens (Human), UniProt P29371)
Assay: 3H-SB222200 binding competition assay with human NK-3 receptor
Settings: 3H-SB222200 displacement, CHO cell membranes expressing human NK3 receptor; read-out: Ki range
Procedure: The affinity of compounds of the invention for the tachykinin receptors was determined by measuring the ability of the compounds of the invention to displace a radiolabeled ligand from its specifics binding site.
^3H-SB222200 Binding Competition Assay with Human NK-3 Receptor
The ability of the compounds of the invention to inhibit the binding of the NK-3 receptor selective antagonist SB222200 was assessed by an in vitro radioligand binding assay. Membranes were prepared from Chinese hamster ovary recombinant cells which express the human NK3 receptor. The membranes were incubated with 5 nM ^3H-SB222200_(ARC) in a HEPES 25 mM/NaCl 0.1M/CaCl2 1 mM/MgCl2 5 Mm/BSA 0.5%/Saponin 10 μg/ml buffer at pH 7.4 and various concentrations of the compounds of the invention. The amount of tritiated SB222200 bound to the receptor was determined after filtration by the quantification of membrane associated radioactivity using the TopCount-NXT reader (Packard). […] In Table 3 biological results obtained using the ^3H-SB222200 binding competition assay with compounds of the invention are set out in tabulated form. In this table the calculated Ki is given. The Ki value obtained (in accordance with the protocol set forth above) is represented as follows: “+++” means Ki<500 nM; “++” means 500 nM≤Ki≤1 μM; “+” means 1 μM<Ki≤5 μM; “#” means Ki>5 μM.

Chain of human NK-3 receptor (P29371 whole entry): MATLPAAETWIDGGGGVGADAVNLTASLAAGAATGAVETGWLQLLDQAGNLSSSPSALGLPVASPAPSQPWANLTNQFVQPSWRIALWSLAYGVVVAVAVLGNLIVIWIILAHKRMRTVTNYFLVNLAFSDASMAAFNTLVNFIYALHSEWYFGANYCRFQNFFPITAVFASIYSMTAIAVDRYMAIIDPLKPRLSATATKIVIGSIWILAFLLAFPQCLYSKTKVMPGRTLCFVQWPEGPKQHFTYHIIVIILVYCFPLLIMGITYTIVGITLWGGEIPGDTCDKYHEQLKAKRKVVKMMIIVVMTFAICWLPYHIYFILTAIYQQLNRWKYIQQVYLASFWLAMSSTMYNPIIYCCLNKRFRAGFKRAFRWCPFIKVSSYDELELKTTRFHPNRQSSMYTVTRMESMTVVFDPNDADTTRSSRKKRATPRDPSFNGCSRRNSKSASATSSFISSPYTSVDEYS

Structure (SMILES) | Ki [nM]
CC1c2nnc(-c3csc(-c4ccc(F)cc4)n3)n2CCN1C(=O)c1ccc(-c2ccccc2)cc1 (centres unmarked) [Compound 76, [1,1′-biphenyl]-4-yl(3-(2-(4-fluorophenyl)thiazol-4-yl)-8-methyl-5,6-dihydro-[1,2,4]triazolo[4,3-a]pyrazin-7(8H)-yl)methanone] | < 500
CC1c2nnc(-c3csc(-c4ccc(F)cc4F)n3)n2CCN1C(=O)c1ccc(F)cc1 (centres unmarked) [Compound 77, (3-(2-(2,4-difluorophenyl)thiazol-4-yl)-8-methyl-5,6-dihydro-[1,2,4]triazolo[4,3-a]pyrazin-7(8H)-yl)(4-fluorophenyl)methanone] | < 500
CC1c2nnc(-c3csc(-c4ccc(F)cc4)n3)n2CCN1C(=O)c1ccc(-c2cccs2)cc1 (centres unmarked) [Compound 78, (3-(2-(4-fluorophenyl)thiazol-4-yl)-8-methyl-5,6-dihydro-[1,2,4]triazolo[4,3-a]pyrazin-7(8H)-yl)(4-(thiophen-2-yl)phenyl)methanone] | < 500
CC1c2nnc(-c3csc(-c4ccc(F)cc4F)n3)n2CCN1C(=O)c1ccc(-c2cccs2)cc1 (centres unmarked) [Compound 80, (3-(2-(2,4-difluorophenyl)thiazol-4-yl)-8-methyl-5,6-dihydro-[1,2,4]triazolo[4,3-a]pyrazin-7(8H)-yl)(4-(thiophen-2-yl)phenyl)methanone] | < 500
CC1c2nnc(-c3nc(-c4ccccc4)no3)n2CCN1C(=O)c1ccc(-c2cccs2)cc1 (centres unmarked) [Compound 85, (8-methyl-3-(3-phenyl-1,2,4-oxadiazol-5-yl)-5,6-dihydro-[1,2,4]triazolo[4,3-a]pyrazin-7(8H)-yl)(4-(thiophen-2-yl)phenyl)methanone] | < 500
O=C(c1ccc(-c2ccccc2)nc1)N1CCn2c(nnc2-c2ccc3ccccc3n2)C1 [Compound 91, (6-phenylpyridin-3-yl)(3-(quinolin-2-yl)-5,6-dihydro-[1,2,4]triazolo[4,3-a]pyrazin-7(8H)-yl)methanone] | < 500
CC(C)CC(=O)N1CCn2c(nnc2-c2ccc3ccccc3n2)C1 [Compound 95, 3-methyl-1-(3-(quinolin-2-yl)-5,6-dihydro-[1,2,4]triazolo[4,3-a]pyrazin-7(8H)-yl)butan-1-one] | 1000 to 5000
O=C(c1ccccc1-c1ccccc1)N1CCn2c(nnc2-c2ccc3ccccc3n2)C1 [Compound 96, [1,1′-biphenyl]-2-yl(3-(quinolin-2-yl)-5,6-dihydro-[1,2,4]triazolo[4,3-a]pyrazin-7(8H)-yl)methanone] | > 5000
N#Cc1ccc(-c2ccc(C(=O)N3CCn4c(nnc4-c4ccc5ccccc5n4)C3)cc2)cc1 [Compound 103, 4′-(3-(quinolin-2-yl)-5,6,7,8-tetrahydro-[1,2,4]triazolo[4,3-a]pyrazine-7-carbonyl)-[1,1′-biphenyl]-4-carbonitrile] | 1000 to 5000
CC1Cn2c(nnc2-c2csc(-c3ccc(F)cc3)n2)CN1C(=O)c1ccc(-c2cccs2)cc1 (centres unmarked) [Compound 107, (3-(2-(4-fluorophenyl)thiazol-4-yl)-6-methyl-5,6-dihydro-[1,2,4]triazolo[4,3-a]pyrazin-7(8H)-yl)(4-(thiophen-2-yl)phenyl)methanone] | 500 to 1000
CC1CN(C(=O)c2ccc(-c3cccs3)cc2)Cc2nnc(-c3csc(-c4ccc(F)cc4)n3)n21 (centres unmarked) [Compound 108, (3-(2-(4-fluorophenyl)thiazol-4-yl)-5-methyl-5,6-dihydro-[1,2,4]triazolo[4,3-a]pyrazin-7(8H)-yl)(4-(thiophen-2-yl)phenyl)methanone] | 500 to 1000
CC1c2nnc(-c3csc(-c4ccc(F)cc4)n3)n2CCN1C(=O)c1ccc(F)c(F)c1 (centres unmarked) [Compound 110, (3,4-difluorophenyl)(3-(2-(4-fluorophenyl)thiazol-4-yl)-8-methyl-5,6-dihydro-[1,2,4]triazolo[4,3-a]pyrazin-7(8H)-yl)methanone] | < 500
CC1c2nnc(-c3csc(-c4ccc(F)cc4)n3)n2CCN1C(=O)c1cc(F)c(F)c(F)c1 (centres unmarked) [Compound 113, (3-(2-(4-fluorophenyl)thiazol-4-yl)-8-methyl-5,6-dihydro-[1,2,4]triazolo[4,3-a]pyrazin-7(8H)-yl)(3,4,5-trifluorophenyl)methanone] | < 500
C[C@@H]1c2nnc(-c3csc(N4CCOCC4)n3)n2CCN1C(=O)c1ccc(-c2ccccc2)cc1 [Compound 118, (R)-[1,1′-biphenyl]-4-yl(8-methyl-3-(2-morpholinothiazol-4-yl)-5,6-dihydro-[1,2,4]triazolo[4,3-a]pyrazin-7(8H)-yl)methanone] | < 500
C[C@@H]1c2nnc(-c3coc(-c4ccccc4)n3)n2CCN1C(=O)c1ccc(-c2ccccc2)cc1 [Compound 131, (R)-[1,1′-biphenyl]-4-yl(8-methyl-3-(2-phenyloxazol-4-yl)-5,6-dihydro-[1,2,4]triazolo[4,3-a]pyrazin-7(8H)-yl)methanone] | < 500
C[C@@H]1c2nnc(-c3csc(N4CCOCC4)n3)n2CCN1C(=O)c1ccc(-c2ccc(F)cc2)cc1 [Compound 134, (R)-(4′-fluoro-[1,1′-biphenyl]-4-yl)(8-methyl-3-(2-morpholinothiazol-4-yl)-5,6-dihydro-[1,2,4]triazolo[4,3-a]pyrazin-7(8H)-yl)methanone] | < 500
C[C@@H]1c2nnc(-c3csc(-c4ccccc4)n3)n2CCN1C(=O)c1ccc(-c2cccs2)cc1 [Compound 135, (R)-(8-methyl-3-(2-phenylthiazol-4-yl)-5,6-dihydro-[1,2,4]triazolo[4,3-a]pyrazin-7(8H)-yl)(4-(thiophen-2-yl)phenyl)methanone] | < 500
C[C@H]1c2nnc(-c3ccc4ccccc4n3)n2CCN1C(=O)c1ccc(F)cc1 [Compound 162, (S)-(4-fluorophenyl)(8-methyl-3-(quinolin-2-yl)-5,6-dihydro-[1,2,4]triazolo[4,3-a]pyrazin-7(8H)-yl)methanone] | < 500
C[C@H]1c2nnc(-c3ccc4ccccc4n3)n2CCN1C(=O)c1ccc(-c2cccs2)cc1 [Compound 163, (S)-(8-methyl-3-(quinolin-2-yl)-5,6-dihydro-[1,2,4]triazolo[4,3-a]pyrazin-7(8H)-yl)(4-(thiophen-2-yl)phenyl)methanone] | 500 to 1000

Now from value to compound:

Ki [nM] | Structure (SMILES)
< 500 | CC1c2nnc(-c3csc(-c4ccc(F)cc4F)n3)n2CCN1C(=O)c1ccc(-c2ccccc2)cc1 (centres unmarked) [Compound 79, [1,1′-biphenyl]-4-yl(3-(2-(2,4-difluorophenyl)thiazol-4-yl)-8-methyl-5,6-dihydro-[1,2,4]triazolo[4,3-a]pyrazin-7(8H)-yl)methanone]
< 500 | O=C(c1ccc(-c2ccccc2)cn1)N1CCn2c(nnc2-c2ccc3ccccc3n2)C1 [Compound 90, (5-phenylpyridin-2-yl)(3-(quinolin-2-yl)-5,6-dihydro-[1,2,4]triazolo[4,3-a]pyrazin-7(8H)-yl)methanone]
1000 to 5000 | O=C(c1cnc(-c2ccccc2)nc1)N1CCn2c(nnc2-c2ccc3ccccc3n2)C1 [Compound 92, (2-phenylpyrimidin-5-yl)(3-(quinolin-2-yl)-5,6-dihydro-[1,2,4]triazolo[4,3-a]pyrazin-7(8H)-yl)methanone]
1000 to 5000 | O=C(C1CCC(c2ccccc2)CC1)N1CCn2c(nnc2-c2ccc3ccccc3n2)C1 (centres unmarked) [Compound 93, (4-phenylcyclohexyl)(3-(quinolin-2-yl)-5,6-dihydro-[1,2,4]triazolo[4,3-a]pyrazin-7(8H)-yl)methanone]
< 500 | C[C@@H]1c2nnc(-c3ccc4ccccc4n3)n2CCN1C(=O)c1ccc(F)cc1 [Compound 115, (R)-(4-fluorophenyl)(8-methyl-3-(quinolin-2-yl)-5,6-dihydro-[1,2,4]triazolo[4,3-a]pyrazin-7(8H)-yl)methanone]
< 500 | C[C@@H]1c2nnc(-c3csc(N4CCOCC4)n3)n2CCN1C(=O)c1ccc(-c2cccs2)cc1 [Compound 136, (R)-(8-methyl-3-(2-morpholinothiazol-4-yl)-5,6-dihydro-[1,2,4]triazolo[4,3-a]pyrazin-7(8H)-yl)(4-(thiophen-2-yl)phenyl)methanone]
> 5000 | C[C@H]1c2nnc(-c3ccccn3)n2CCN1C(=O)c1ccc(F)cc1 [Compound 159, (S)-(4-fluorophenyl)(8-methyl-3-(pyridin-2-yl)-5,6-dihydro-[1,2,4]triazolo[4,3-a]pyrazin-7(8H)-yl)methanone]
1000 to 5000 | C[C@H]1c2nnc(-c3csc(-c4ccc(F)cc4)n3)n2CCN1C(=O)c1ccc(F)cc1 [Compound 160, (S)-(4-fluorophenyl)(3-(2-(4-fluorophenyl)thiazol-4-yl)-8-methyl-5,6-dihydro-[1,2,4]triazolo[4,3-a]pyrazin-7(8H)-yl)methanone]
1000 to 5000 | C[C@H]1c2nnc(-c3csc(N4CCOCC4)n3)n2CCN1C(=O)c1ccc(-c2ccc(F)cc2)cc1 [Compound 161, (S)-(4′-fluoro-[1,1′-biphenyl]-4-yl)(8-methyl-3-(2-morpholinothiazol-4-yl)-5,6-dihydro-[1,2,4]triazolo[4,3-a]pyrazin-7(8H)-yl)methanone]
< 500 | C[C@H]1c2nnc(-c3csc(-c4ccc(F)cc4)n3)n2CCN1C(=O)c1ccc(F)cc1 [Compound 164, (S)-(4-fluorophenyl)(3-(2-(4-fluorophenyl)thiazol-4-yl)-8-methyl-5,6-dihydro-[1,2,4]triazolo[4,3-a]pyrazin-7(8H)-yl)methanone]
